Legend:
hACSL5 [1] = target: T1, hACSL5 (Homo sapiens (Human), UniProt Q9ULC5); assay: Human ACSL5 coupled enzyme Amplex Red assay; assay type: biochemical; conditions: read-out: hACSL5 IC50
Summary of the method: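 Amplex Red coupled readout: 1 mM ATP, 25 μM oleate and 30 μM CoA were added to compound-preincubated enzyme (20 nM, residues 33-683, insect-cell expressed, His-tagged) with coupling peroxidase and acyl-CoA oxidase at pH 7.6. Signal was read at 535/590 nm after 10 minutes at 25° C., and Hill fits yielded half-maximal and maximal inhibition.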
Target sequence in this assay (Q9ULC5 33-683): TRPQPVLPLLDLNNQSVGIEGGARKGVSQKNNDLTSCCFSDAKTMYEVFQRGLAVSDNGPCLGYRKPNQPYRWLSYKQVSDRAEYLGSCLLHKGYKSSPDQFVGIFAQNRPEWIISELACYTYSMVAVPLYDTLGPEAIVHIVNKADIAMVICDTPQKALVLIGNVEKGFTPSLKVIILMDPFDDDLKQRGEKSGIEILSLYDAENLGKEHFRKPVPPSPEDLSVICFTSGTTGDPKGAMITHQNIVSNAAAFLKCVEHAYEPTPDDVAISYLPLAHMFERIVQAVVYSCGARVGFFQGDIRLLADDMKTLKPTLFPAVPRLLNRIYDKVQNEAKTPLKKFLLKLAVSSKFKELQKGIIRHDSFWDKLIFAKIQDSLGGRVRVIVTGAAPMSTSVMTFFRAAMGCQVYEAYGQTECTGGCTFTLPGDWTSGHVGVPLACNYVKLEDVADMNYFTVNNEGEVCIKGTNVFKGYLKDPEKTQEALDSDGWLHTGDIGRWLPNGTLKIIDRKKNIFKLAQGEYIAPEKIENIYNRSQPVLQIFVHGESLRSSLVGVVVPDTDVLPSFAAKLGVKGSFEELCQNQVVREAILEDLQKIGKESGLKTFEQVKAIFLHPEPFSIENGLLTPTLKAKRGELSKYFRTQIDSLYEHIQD

hACSL5 [2] = target: T1, hACSL5; assay: Cell-based assay (CBA) with B12FA in hACSL5-transfected Expi293F / FlpIn TRex293 cells; conditions: hACSL5-expressing cells
Summary of the method: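 hACSL5-expressing Expi293F or tetracycline-induced FlpIn TRex293 cells, serum- and glucose-starved 1 h, then treated 3 h with serially diluted compound plus 20 µM B12FA. After fixation, 630/520 nm emission ratio (ex 485 nm) gave % inhibition versus no-inhibitor and 10 µM compound/non-induced controls; IC50 by Hill fit.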
Target sequence in this assay (Q9ULC5 whole entry, the tested form may be a part): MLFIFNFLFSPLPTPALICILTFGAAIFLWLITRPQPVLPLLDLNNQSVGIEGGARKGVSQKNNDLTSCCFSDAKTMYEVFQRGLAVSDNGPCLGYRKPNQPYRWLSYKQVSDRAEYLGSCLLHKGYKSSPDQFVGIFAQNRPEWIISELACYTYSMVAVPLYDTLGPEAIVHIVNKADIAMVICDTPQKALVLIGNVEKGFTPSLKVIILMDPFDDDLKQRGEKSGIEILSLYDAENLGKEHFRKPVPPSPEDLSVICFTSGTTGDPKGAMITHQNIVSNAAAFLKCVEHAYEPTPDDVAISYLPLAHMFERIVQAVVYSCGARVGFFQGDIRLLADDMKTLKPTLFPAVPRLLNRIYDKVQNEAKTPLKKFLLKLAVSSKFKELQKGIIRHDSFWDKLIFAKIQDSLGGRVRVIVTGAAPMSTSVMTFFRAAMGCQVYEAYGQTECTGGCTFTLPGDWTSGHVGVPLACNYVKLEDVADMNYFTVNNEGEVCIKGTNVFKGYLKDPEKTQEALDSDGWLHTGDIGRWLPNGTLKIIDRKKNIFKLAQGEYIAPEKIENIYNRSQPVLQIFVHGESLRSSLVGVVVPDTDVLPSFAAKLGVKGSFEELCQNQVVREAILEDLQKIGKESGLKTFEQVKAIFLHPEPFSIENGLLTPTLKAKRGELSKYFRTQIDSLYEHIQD

| SMILES | IC50 (hACSL5 [1]) | IC50 (hACSL5 [2]) |
| --- | --- | --- |
| CC[C@@H](Oc1ccc(C(=O)NS(=O)(=O)C(C)(C)CN(C)C)c(F)c1F)c1ccc(OCC2CC2)cn1 [(R)-4-(1-(5-(cyclopropylmethoxy)pyridin-2-yl)propoxy)-N-((1-(dimethylamino)-2-methylpropan-2-yl)sulfonyl)-2,3-difluorobenzamide] | 100 to 500 nM | 100 to 500 nM |
| CC[C@@H](Oc1ccc(C(=O)NS(=O)(=O)c2ccc(OCCN(C)C)cc2)cc1C(F)(F)F)c1ccc(OCC2CC2)cn1 [(R)-4-(1-(5-(cyclopropylmethoxy)pyridin-2-yl)propoxy)-N-((4-(2-(dimethylamino)ethoxy)phenyl)sulfonyl)-3-(trifluoromethyl)benzamide] | < 100 nM | 100 to 500 nM |
| CC[C@@H](Oc1ccc(C(=O)NS(=O)(=O)N2CCC(OCCN(C)C)CC2)c(F)c1F)c1ccc(OCC2CC2)cn1 [(R)-4-(1-(5-(cyclopropylmethoxy)pyridin-2-yl)propoxy)-N-((4-(2-(dimethylamino)ethoxy)piperidin-1-yl)sulfonyl)-2,3-difluorobenzamide] | < 100 nM | 100 to 500 nM |
| CC[C@@H](Oc1ccc(C(=O)NS(=O)(=O)c2ccc(OC3CCN(CC(F)F)CC3)cc2)c(F)c1F)c1ccc(OCC2CC2)cn1 [(R)-4-(1-(5-(cyclopropylmethoxy)pyridin-2-yl)propoxy)-N-((4-((1-(2,2-difluoroethyl)piperidin-4-yl)oxy)phenyl)sulfonyl)-2,3-difluorobenzamide] | < 100 nM | 100 to 500 nM |
| CC[C@@H](Oc1ccc(C(=O)NS(=O)(=O)c2ccc(OC3CCN(CC4CC4)CC3)cc2)c(F)c1F)c1ccc(OCC2CC2)cn1 [(R)-4-(1-(5-(cyclopropylmethoxy)pyridin-2-yl)propoxy)-N-((4-((1-(cyclopropylmethyl)piperidin-4-yl)oxy)phenyl)sulfonyl)-2,3-difluorobenzamide] | < 100 nM | < 100 nM |
| CC[C@@H](Oc1ccc(C(=O)NS(=O)(=O)N2CCC(OC3CCN(CC4CC4)CC3)CC2)c(F)c1F)c1ccc(OCC2CC2)cn1 [(R)-4-(1-(5-(cyclopropylmethoxy)pyridin-2-yl)propoxy)-N-((4-((1-(cyclopropylmethyl)piperidin-4-yl)oxy)piperidin-1-yl)sulfonyl)-2,3-difluorobenzamide] | < 100 nM | 100 to 500 nM |
| CC[C@@H](Oc1ccc(C(=O)NS(=O)(=O)c2ccc(OC3CCN(CC)CC3)cc2)c(F)c1F)c1ccc(OCC2CC2)cn1 [(R)-4-(1-(5-(cyclopropylmethoxy)pyridin-2-yl)propoxy)-N-((4-((1-ethylpiperidin-4-yl)oxy)phenyl)sulfonyl)-2,3-difluorobenzamide] | < 100 nM | < 100 nM |
| CC[C@@H](Oc1ccc(C(=O)NS(=O)(=O)N2CCC(OC3CCN(C)CC3)CC2)cc1C(F)(F)F)c1ccc(OCC2CC2)cn1 [(R)-4-(1-(5-(cyclopropylmethoxy)pyridin-2-yl)propoxy)-N-((4-((1-methylpiperidin-4-yl)oxy)piperidin-1-yl)sulfonyl)-3-(trifluoromethyl)benzamide] | < 100 nM | < 100 nM |
| CC[C@@H](Oc1ccc(C(=O)NS(=O)(=O)N2CCC(CN3CCN(CC)CC3)CC2)c(F)c1F)c1ccc(OCC2CC2)cn1 [(R)-4-(1-(5-(cyclopropylmethoxy)pyridin-2-yl)propoxy)-N-((4-((4-ethylpiperazin-1-yl)methyl)piperidin-1-yl)sulfonyl)-2,3-difluorobenzamide] | < 100 nM | > 500 nM |
| CC[C@@H](Oc1ccc(C(=O)NS(=O)(=O)N2CCN(CC3CC3)CC2)c(F)c1F)c1ccc(OCC2CC2)cn1 [(R)-4-(1-(5-(cyclopropylmethoxy)pyridin-2-yl)propoxy)-N-((4-(cyclopropylmethyl)piperazin-1-yl)sulfonyl)-2,3-difluorobenzamide] | < 100 nM | 100 to 500 nM |
| CC[C@@H](Oc1ccc(C(=O)NS(=O)(=O)N2CCN(C3CC3)CC2)c(F)c1F)c1ccc(OCC2CC2)cn1 [(R)-4-(1-(5-(cyclopropylmethoxy)pyridin-2-yl)propoxy)-N-((4-cyclopropylpiperazin-1-yl)sulfonyl)-2,3-difluorobenzamide] | < 100 nM | < 100 nM |
| CC[C@@H](Oc1ccc(C(=O)NS(=O)(=O)N2CCN(CC)CC2)c(F)c1F)c1ccc(OCC2CC2)cn1 [(R)-4-(1-(5-(cyclopropylmethoxy)pyridin-2-yl)propoxy)-N-((4-ethylpiperazin-1-yl)sulfonyl)-2,3-difluorobenzamide] | < 100 nM | < 100 nM |
| CC[C@@H](Oc1ccc(C(=O)NS(=O)(=O)N2CCN(CC)CC2)cc1C(F)(F)F)c1ccc(OCC2CC2)cn1 [(R)-4-(1-(5-(cyclopropylmethoxy)pyridin-2-yl)propoxy)-N-((4-ethylpiperazin-1-yl)sulfonyl)-3-(trifluoromethyl)benzamide] | < 100 nM | < 100 nM |
| CC[C@@H](Oc1ccc(C(=O)NS(=O)(=O)N2CCN(C)CC2)cc1C(F)(F)F)c1ccc(OCC2CC2)cn1 [(R)-4-(1-(5-(cyclopropylmethoxy)pyridin-2-yl)propoxy)-N-((4-methylpiperazin-1-yl)sulfonyl)-3-(trifluoromethyl)benzamide] | < 100 nM | < 100 nM |
| CC[C@@H](Oc1ccc(C(=O)NS(=O)(=O)N2CC3(CC(OCCN(C)C)C3)C2)c(F)c1F)c1ccc(OCC2CC2)cn1 [(R)-4-(1-(5-(cyclopropylmethoxy)pyridin-2-yl)propoxy)-N-((6-(2-(dimethylamino)ethoxy)-2-azaspiro[3.3]heptan-2-yl)sulfonyl)-2,3-difluorobenzamide] | 100 to 500 nM | > 500 nM |
| CC[C@@H](Oc1ccc(C(=O)NS(=O)(=O)c2ccc(CN3CCN(CC)CC3)nc2)c(F)c1F)c1ccc(OCC2CC2)cn1 [(R)-4-(1-(5-(cyclopropylmethoxy)pyridin-2-yl)propoxy)-N-((6-((4-ethylpiperazin-1-yl)methyl)pyridin-3-yl)sulfonyl)-2,3-difluorobenzamide] | < 100 nM | > 500 nM |
| CC[C@@H](Oc1ccc(C(=O)NS(=O)(=O)C(C)(C)CN(C)C)c(F)c1F)c1ccc(Oc2ccccn2)cn1 [(R)-N-((1-(dimethylamino)-2-methylpropan-2-yl)sulfonyl)-2,3-difluoro-4-(1-(5-(pyridin-2-yloxy)pyridin-2-yl)propoxy)benzamide] | < 100 nM | < 100 nM |
| CC[C@@H](Oc1ccc(C(=O)NS(=O)(=O)c2ccc(OCCn3ccnc3)cc2)c(F)c1F)c1ccc(OCCOC)cn1 [(R)-N-((4-(2-(1H-imidazol-1-yl)ethoxy)phenyl)sulfonyl)-2,3-difluoro-4-(1-(5-(2-methoxyethoxy)pyridin-2-yl)propoxy)benzamide] | < 100 nM | > 500 nM |
| CC[C@@H](Oc1ccc(C(=O)NS(=O)(=O)c2ccc(OCCNC3CC3)cc2)c(F)c1F)c1ccc(OCC2CC2)cn1 [(R)-N-((4-(2-(cyclopropylamino)ethoxy)phenyl)sulfonyl)-4-(1-(5-(cyclopropylmethoxy)pyridin-2-yl)propoxy)-2,3-difluorobenzamide] | < 100 nM | < 100 nM |
| CC[C@@H](Oc1ccc(C(=O)NS(=O)(=O)c2ccc(OCCN(C)C)cc2)c(F)c1F)c1cc(Oc2ccccn2)ccn1 [(R)-N-((4-(2-(dimethylamino)ethoxy)phenyl)sulfonyl)-2,3-difluoro-4-(1-(4-(pyridin-2-yloxy)pyridin-2-yl)propoxy)benzamide] | < 100 nM | 100 to 500 nM |
| CC[C@@H](Oc1ccc(C(=O)NS(=O)(=O)c2ccc(OCCN(C)C)cc2)c(F)c1F)c1ccc(OCCOC)cn1 [(R)-N-((4-(2-(dimethylamino)ethoxy)phenyl)sulfonyl)-2,3-difluoro-4-(1-(5-(2-methoxyethoxy)pyridin-2-yl)propoxy)benzamide] | 100 to 500 nM | > 500 nM |
| C[C@@H](Oc1ccc(C(=O)NS(=O)(=O)c2ccc(OCCN(C)C)cc2)c(F)c1F)c1ccc(Oc2ccccn2)cn1 [(R)-N-((4-(2-(dimethylamino)ethoxy)phenyl)sulfonyl)-2,3-difluoro-4-(1-(5-(pyridin-2-yloxy)pyridin-2-yl)ethoxy)benzamide] | < 100 nM | 100 to 500 nM |
| CC[C@@H](Oc1ccc(C(=O)NS(=O)(=O)c2ccc(OCCN(C)C)cc2)c(F)c1F)c1ccc(Oc2ccccn2)cn1 [(R)-N-((4-(2-(dimethylamino)ethoxy)phenyl)sulfonyl)-2,3-difluoro-4-(1-(5-(pyridin-2-yloxy)pyridin-2-yl)propoxy)benzamide] | < 100 nM | 100 to 500 nM |
| C[C@@H](Oc1ccc(C(=O)NS(=O)(=O)c2ccc(OCCN(C)C)cc2)cc1C(F)(F)F)c1ccc(Oc2ccccn2)cn1 [(R)-N-((4-(2-(dimethylamino)ethoxy)phenyl)sulfonyl)-4-(1-(5-(pyridin-2-yloxy)pyridin-2-yl)ethoxy)-3-(trifluoromethyl)benzamide] | < 100 nM | < 100 nM |
| CC[C@@H](Oc1ccc(C(=O)NS(=O)(=O)c2ccc(OCCN(C)C)cc2)cc1C(F)(F)F)c1ccc(Oc2ccccn2)cn1 [(R)-N-((4-(2-(dimethylamino)ethoxy)phenyl)sulfonyl)-4-(1-(5-(pyridin-2-yloxy)pyridin-2-yl)propoxy)-3-(trifluoromethyl)benzamide] | < 100 nM | < 100 nM |
| CC[C@@H](Oc1ccc(C(=O)NS(=O)(=O)c2ccc(OC34CCN(CC3)C4)cc2)c(F)c1F)c1ccc(OCC2CC2)cn1 [(R)-N-((4-((1-azabicyclo[2.2.1]heptan-4-yl)oxy)phenyl)sulfonyl)-4-(1-(5-(cyclopropylmethoxy)pyridin-2-yl)propoxy)-2,3-difluorobenzamide] | < 100 nM | 100 to 500 nM |

Reference: US20250275959A1, “COMPOUNDS AND METHODS OF THEIR USE” (LEXICON PHARMACEUTICALS, INC., priority 2024, published 2025)
